This note sets out measurements from publication PMC9370021, “Novel 1,3-Thiazole Analogues with Potent Activity against Breast Cancer: A Design, Synthesis, In Vitro, and In Silico Study” (Molecules, 2022).

SMILES strings stand for the structures.

What is called melting point is the temperature of the solid-liquid transition. By IC50 is commonly meant the midpoint of a concentration-inhibition curve. Read a low IC50 as higher potency.

In data set [1] the test system is MCF-7 breast cancer cell line. In words: MTT anti-proliferative assay, MCF-7. Type of data set: cell-based. The settings on record: Homo sapiens, MCF7, 48 h, mean ± S.E.M. As to the method: (§1) Toward this aim, the cells were treated with the synthesized compounds at different concentrations and were incubated for 48 h. In our evaluations, staurosporine (STU) was used as a reference drug. After the cells were washed, they were treated with MTT solution, and an ELISA reader assessed the absorption of the solution at a wavelength of 570 nm.
(§2) Finally, the resulting MTT crystals were dissolved at ambient temperature in acidified isopropanol (180 µL/well) with shaking, and the absorption was assessed at 570 nm utilizing ELISA.

The test system of data set [2] is MDA-MB-231 breast cancer cell line. Description: MTT anti-proliferative assay, MDA-MB-231. It is filed as cell-based. The settings on record: mean ± S.E.M. As to the method: as §1, §2
On the technique in general: Tetrazolium dyes change colour on reduction, which living cells bring about.

Data set [3] has as its system epithelial breast cell line MCF-10A. Description: MTT cytotoxicity assay, epithelial breast cells MCF-10A. Type of data set: cell-based. Conditions: Homo sapiens, 48 h, mean ± S.E.M. The protocol:
as §1, §2

The test system of data set [4] is MCF-7 cells. Description: Annexin V-FITC/PI dual staining (apoptosis and necrosis). Type of data set: cell-based. The settings on record: MCF-7, 5.73 µM, 24 h. The protocol:
Our findings encouraged us to further explore the mechanistic insights accounting for the potent cytotoxicity and cell cycle arrest. To investigate whether the mode of action for the antiproliferative activity of compound 4 toward MCF-7 cells involves apoptosis and/or necrosis, we performed Annexin V- FITC/PI dual staining assay. To this end, we treated MCF-7 cells with compound 4 (5.73 µM) for 24h and assessed the programmed cell death at different stages utilizing the cytofluorometry analysis. […] Indeed, treatment with compound 4 increased apoptosis by 9 and 89 times at the early and late stages, respectively, compared to control cells.
To explore the effect of compound 4 on the programmed cell death mechanisms of MCF-7 cells, fluorescent Annexin V-FITC/ PI assay was performed using flow cytometry following a previously reported procedure. Briefly, MCF-7 cells (2 × 10^5) were treated with compound 4 at 5.73 µM concentration. After incubation for 24 h, the harvested cells were stained in the dark at 37 °C with Annexin V-FITC/ PI dye for 15 min. Cytofluorometry analysis was assessed by BD FACS Calibur (Becton and Dickinson, Heidelberg, Germany), and the BD cell Quest pro software was utilized to analyze the results.

For data set [5], the system named is MCF-7 cells. Description: Cell cycle analysis by flow cytometry (propidium iodide). It is filed as cell-based. Conditions: MCF-7, 5.73 µM, 24 h. The protocol:
Based on the anti-proliferative activity results, we selected compound 4 to further explore and achieve insights into the mechanism responsible for the cytotoxicity of this class of compounds. Toward this aim, we assessed the effect of compound 4 on the cell cycle distribution of MCF-7 cells utilizing flow cytometry analysis. The cell cycle distribution analysis was evaluated after incubation of MCF-7 cells with compound 4 at 5.73 µM. […] Further, compound 4 induced a substantial diminution in the cellular population at the G2/M stage. As indicated in Figure 5a–c, the cellular populations of the G2/M and pre-G1 phases in the control cells were 16.99% and 2.12%, respectively, while the populations were altered to 6.81% and 31.66%, respectively, in the presence of compound 4 at 5.73 µM.
To assess the effect of compound 4 on the cell cycle of MCF-7 cells, we treated the MCF-7 cells with compound 4 and analyzed the cell cycle arrest at different stages as previously reported. […] After the cells were incubated with propidium iodide (5 mg/mL, Sigma, Ronkonkoma, NY, USA) and Rnase (10 mg/mL, Sigma, Ronkonkoma, NY, USA), cytofluorometry analysis was performed using FACS Calibur cytometer, and the results were analyzed utilizing Cell quest software (BD Bioscience, San Jose, CA, USA).
In general terms: In flow cytometry, cells or beads pass a laser one at a time.

A further data set addresses human VEGFR-2/KDR (Homo sapiens, UniProt P35968). In words: VEGFR-2 inhibitory activity (VEGFR-2/KDR ELISA kit). (In general: An ELISA detects its analyte on a solid surface through an enzyme-linked reagent.)

human VEGFR-2/KDR, sequence (P35968 20-1356): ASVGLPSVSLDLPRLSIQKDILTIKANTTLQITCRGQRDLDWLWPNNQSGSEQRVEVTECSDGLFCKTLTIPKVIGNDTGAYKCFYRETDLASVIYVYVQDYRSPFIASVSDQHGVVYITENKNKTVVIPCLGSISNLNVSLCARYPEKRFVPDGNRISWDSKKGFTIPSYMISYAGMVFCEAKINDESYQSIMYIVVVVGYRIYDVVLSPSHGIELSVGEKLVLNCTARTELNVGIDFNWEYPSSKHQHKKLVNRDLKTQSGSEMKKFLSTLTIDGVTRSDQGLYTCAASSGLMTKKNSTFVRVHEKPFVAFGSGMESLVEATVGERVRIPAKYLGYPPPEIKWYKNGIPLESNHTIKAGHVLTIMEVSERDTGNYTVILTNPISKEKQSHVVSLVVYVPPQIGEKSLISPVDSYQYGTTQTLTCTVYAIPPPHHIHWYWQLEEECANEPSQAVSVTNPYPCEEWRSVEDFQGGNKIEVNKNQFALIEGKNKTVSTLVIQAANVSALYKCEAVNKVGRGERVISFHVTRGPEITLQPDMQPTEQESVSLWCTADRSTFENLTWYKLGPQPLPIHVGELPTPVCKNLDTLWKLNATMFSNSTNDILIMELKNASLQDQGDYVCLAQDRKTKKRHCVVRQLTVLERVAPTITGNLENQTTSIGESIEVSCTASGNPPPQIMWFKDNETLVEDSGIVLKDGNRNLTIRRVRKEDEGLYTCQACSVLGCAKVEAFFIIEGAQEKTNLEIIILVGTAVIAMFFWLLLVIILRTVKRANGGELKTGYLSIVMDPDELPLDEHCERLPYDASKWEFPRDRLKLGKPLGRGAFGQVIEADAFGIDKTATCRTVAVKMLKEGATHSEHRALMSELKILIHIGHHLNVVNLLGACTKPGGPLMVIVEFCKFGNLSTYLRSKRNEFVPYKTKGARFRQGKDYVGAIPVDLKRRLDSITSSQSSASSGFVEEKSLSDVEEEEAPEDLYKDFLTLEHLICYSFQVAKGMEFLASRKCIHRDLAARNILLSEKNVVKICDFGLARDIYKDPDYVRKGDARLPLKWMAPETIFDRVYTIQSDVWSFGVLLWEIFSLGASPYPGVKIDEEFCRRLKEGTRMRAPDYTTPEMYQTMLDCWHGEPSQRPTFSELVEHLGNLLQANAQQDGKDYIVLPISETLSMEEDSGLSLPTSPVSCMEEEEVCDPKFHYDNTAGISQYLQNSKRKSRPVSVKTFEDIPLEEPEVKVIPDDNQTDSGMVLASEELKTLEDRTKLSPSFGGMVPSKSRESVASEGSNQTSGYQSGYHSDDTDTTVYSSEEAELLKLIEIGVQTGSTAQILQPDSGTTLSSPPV
Protocol for human VEGFR-2/KDR: In our experiments, we used Sorafenib as a positive control drug reference. The activity of compounds was assessed at different concentrations, and the IC50 values were determined.

In the case of `COc1cc(C(OC(C)=O)N(/N=C(\C)c2ccc(Br)cc2)c2nc(-c3ccc(Cl)cc3)cs2)ccc1OC(C)=O` (stereo not drawn) [Compound 6b, (E)-4-(Acetoxy(2-(1-(4-bromophenyl)ethylidene)-1-(4-(4-chlorophenyl)thiazol-2-yl)hydrazineyl)methyl)-2-methoxyphenyl acetate], the melting point was in the range of 126 to 128 °C. In addition, it took 43.8 ± 2.04 µM to reach half-maximal inhibition in data set [1] (IC50). Also, the IC50 in data set [2] (Homo sapiens, MDA-MB-231, 48 h) was 77 ± 1.95 µM.
The compound `CC(=O)Nc1nc(-c2ccc(Cl)cc2)cs1` [Compound 4, N-(4-(4-Chlorophenyl)-Thiazol-2-yl)Acetamide] yielded an IC50 in data set [3] of 36.8 ± 5 µM. In data set [1], the IC50 was 5.73 ± 0.44 µM. Besides, in the data set with MCF-7 cells [4], the “increase of apoptosis at the early stage compared to control cells” value came to 9 times, the “increase of apoptosis at the late stage compared to control cells” value came to 89 times and the “increase of necrosis compared to control cells” value is given as 9 times. The necrosis percentage in the data set on MCF-7 cells [4] (control 1.26%) is given as 11.77%. Also, the “cellular population in pre-G1 phase” value in the data set with MCF-7 cells [5] (control 2.12%) worked out at 31.66%. For the same compound, in the data set on MCF-7 cells [5] (control 16.99%), the “cellular population in G2/M phase” value is given as 6.81%. For the same compound, in data set [2] (Homo sapiens, MDA-MB-231, 48 h), half-maximal inhibition (IC50) required 12.2 ± 0.93 µM.
In turn, `COc1cc(C(O)N(/N=C(\C)c2ccc(Br)cc2)c2nc(-c3ccc(Cl)cc3)cs2)ccc1O` (stereo not drawn) [Compound 5b, (E)-4-((2-(1-(4-Bromophenyl)ethylidene)-1-(4-(4-chlorophenyl)thiazol-2-yl)hydrazineyl)(hydroxy)methyl)-2-methoxyphenol] displayed a melting point of 158 to 160 °C. For the same compound, 32.5 ± 2.47 µM corresponded to half-maximal inhibition in data set [1] (IC50). The half-maximal inhibitory concentration (IC50) in data set [2] (Homo sapiens, MDA-MB-231, 48 h) was determined as 62.12 ± 0.47 µM.
For `C/C(=N\Nc1nc(-c2ccc(Cl)cc2)cs1)c1ccc(Br)cc1` [Compound 3b, (E)-2-(2-(1-(4-bromophenyl)ethylidene)hydrazineyl)-4-(4-chlorophenyl)thiazole], in that order: 185 °C, 31.2 ± 2.38 µM and 36.8 ± 2.81 µM.
In turn, `CC(=O)Oc1ccc(C(OC(C)=O)N(/N=C(\C)c2ccc(Br)cc2)c2nc(-c3ccc(Cl)cc3)cs2)cc1` (stereo not drawn) [Compound 6a, (E)-4-(Acetoxy(2-(1-(4-bromophenyl)ethylidene)-1-(4-(4-chlorophenyl)thiazol-2-yl)hydrazineyl)methyl)phenyl acetate] yielded a melting point of 126 to 128 °C. This compound had an IC50 in data set [1] of over 100 µM. Also, the IC50 in data set [2] (Homo sapiens, MDA-MB-231, 48 h) was over 100 µM.
`C/C(=N\N(c1nc(-c2ccc(Cl)cc2)cs1)C(O)c1ccc(O)cc1)c1ccc(Br)cc1` (stereo not drawn) [Compound 5a, (E)-4-((2-(1-(4-Bromophenyl)ethylidene)-1-(4-(4-chlorophenyl)thiazol-2-yl)hydrazineyl)(hydroxy)methyl)phenol] had a melting point of 155 to 157 °C. In data set [1], the IC50 amounted to 18.6 ± 1.42 µM. In data set [2] (Homo sapiens, MDA-MB-231, 48 h), this compound came in with an IC50 of 20.7 ± 1.58 µM.
Regarding `C/C(=N\Nc1nc(-c2ccc(Br)cc2)cs1)c1ccccc1O` [Compound 3c, (E)-2-(1-(2-(4-(4-Bromophenyl)thiazol-2-yl)hydrazineylidene)ethyl)-phenol], the IC50 in data set [1] came out at 13.7 ± 1.04 µM; against human VEGFR-2/KDR it was 0.253 ± 0.54 µM; in data set [2] (48 h), 17.08 ± 0.13 µM; in data set [2] (Homo sapiens, MDA-MB-231, 48 h) it was 17.1 µM.
As to `Oc1ccc(/C=N/Nc2nc(-c3ccc(Cl)cc3)cs2)cc1` [Compound 3a, (E)-4-((2-(4-(4-Chlorophenyl)thiazol-2-yl)hydrazineylidene)methyl)-phenol], the IC50 worked out at 24.9 ± 1.9 µM in data set [1] and 18.7 ± 1.42 µM in data set [2] (Homo sapiens, MDA-MB-231, 48 h).
